Results as given in patent publication US9938249B2, “Anti-amyloid compounds containing benzofurazan” (Treventis Corporation, priority 2014, dated 2018).

Key:
[1] = target: Terminally biotinylated beta-amyloid (Aβ42) (Homo sapiens, UniProt P05067); assay: Aβ42 biotinylated (biotin-AB) oligomerization assay, NeutrAvidin capture ELISA; assay type: biochemical; settings: approximate value; 1 hr oligomerization at room temperature; read-out: IC50 Aβ 42-bio
In short: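 Biotin-Aβ42, pretreated with HFIP/TFA to remove seeds, oligomerized 1 h at room temperature with compound in 20 mM sodium phosphate pH 7.5, 150 mM NaCl (DMSO up to 1%). Oligomers captured on NeutrAvidin plates, detected with streptavidin-HRP/TMB at 450 nm; IC50 approximate, in µM.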

Aβ40 = Aβ40 (Homo sapiens, UniProt P05067); assay: ThT Aβ aggregation assay (kinetic Thioflavin T fluorescence); assay type: biochemical; settings: 20 μM Aβ, DMSO control at 80 hr = 0% inhibition, number in parenthesis = compound ID 1027 in that experiment; for inhibition at 10 µM: read-out: % inhib Thioflavin T Aβ 40 10 μM; for inhibition at 5 µM: 80 h, read-out: % inhib Thioflavin T Aβ 40 (5 μm)
Chain of Aβ40 (P05067 672-711, species assumed): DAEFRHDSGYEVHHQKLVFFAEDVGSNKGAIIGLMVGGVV
Experimental: Preparation of Aβ40 Stock Solutions
Aβ40 (1.0 mg) was pre-treated in a 1.5 mL microfuge tube with HFIP (1 mL) and sonicated for 20 min to disassemble any pre-formed Aβ aggregates. The HFIP was removed with a stream of argon and the Aβ dissolved in Tris base (5.8 mL, 20 mM, pH ˜10). The pH was adjusted to 7.4 with concentrated HCl (˜10 μL) and the solution filtered using a syringe filter (0.2 μm) before being used.
The kinetic ThT assay for Aβ aggregation is similar to that of Chalifour et al (Chalifour et al, 2003, J. Biol. Chem. 278:34874-81). Briefly, pre-treated Aβ40 or Aβ42 (40 μM in 20 mM Tris, pH 7.4) was diluted with an equal volume of 8 μM Thioflavin T (ThT) in Tris (20 mM, pH 7.4, 300 mM NaCl). Aliquots of Aβ/ThT (200 μL) were added to wells of a black polystyrene 96-well plate, followed by 2 μL of a compound in DMSO (variable concentration), or DMSO alone (controls). Incubations were performed in triplicate and were taken to contain 20 μM Aβ, various concentration of compound in 20 mM Tris, pH 7.4, 150 mM NaCl, 1% DMSO. Plates were covered with clear polystyrene lids and incubated at 37° C. in a Tecan Genios microplate reader.
Analysis of ThT and ThS Aggregation Assays
Fluorescence readings (λex=450 nm, λem=480 nm) were taken every 15 min., after first shaking at high intensity for 15 s and allowing to settle for 10 s before each reading. Active compounds attenuated the increase in fluorescence over time that occurred in controls. In FIGS. 1-7, the time this procedure was performed extended to 80 hours (rightmost part of X-axis), at which point fluorescence increase generally reached an asymptote. Applying a definition of DMSO control at 80 hr as 100% aggregation (0% inhibition) and DMSO control at 0 hr as 0% aggregation (100% inhibition), a % inhibition score where higher is better can be calculated for a given concentration of compound. By repeating this procedure over several concentrations, a […] (IC50) can be measured, as is given in the table below for some compounds.

[2] = compound 5 μm (so in the source)

Chain of Terminally biotinylated beta-amyloid (Aβ42) (P05067 672-713, species assumed): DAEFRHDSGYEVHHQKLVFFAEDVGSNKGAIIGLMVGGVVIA

SMILES	IC50 [1] [µM]	inhibition at 10 µM (Aβ40; compound 10 μM) [%]	% inhib Thioflavin T Aβ 40 10 μM (Aβ40; compound 10 μM) [%]	% inhib Thioflavin T Aβ 40 (5 μm) (Aβ40; [2]) [%]	inhibition at 5 µM (Aβ40; [2]) [%]
Clc1ccc(-c2cc(N3CC(CN4CCCC4)C3)c3nonc3c2)cn1 [compound 1496]	13.5	41			
OC(c1cc(-c2cc(N3CC(CN4CCCC4)C3)c3nonc3c2)cs1)C(F)(F)F (centres unmarked) [compound 1537]	3.5		74	71	
COc1ccc(-c2cc(N3CC(CN4CCCC4)C3)c3nonc3c2)cc1OC [compound 1483]	8.21	36			
c1cc(-c2cc(N3CC(CN4CCCC4)C3)c3nonc3c2)n[nH]1 [compound 1525]	13.2	63			
CC(=O)N1C=C(c2cc(N3CC(CN4CCCC4)C3)c3nonc3c2)CCC1 [compound 1534]	3.5	67			
OCc1ccccc1-c1cc(N2CC(CN3CCCC3)C2)c2nonc2c1 [compound 1499]	23.3	34			
Clc1cccc(-c2cc(N3CC(CN4CCCC4)C3)c3nonc3c2)c1 [compound 1505]	4.62	62			
c1cc(-c2cc(N3CC(CN4CCCC4)C3)c3nonc3c2)ccn1 [compound 1528]	7.8	50			
c1cc(N2CC(CN3CCCC3)C2)c2nonc2c1 [compound 1473]	18.1	31			
c1ccc(Oc2ccccc2-c2cc(N3CC(CN4CCCC4)C3)c3nonc3c2)cc1 [compound 1504]	5.27	72			
COc1ccc(-c2cc(N3CC(CN4CCCC4)C3)c3nonc3c2)cc1Cl [compound 1492]	4.8	22			
c1cncc(-c2cc(N3CC(CN4CCCC4)C3)c3nonc3c2)c1 [compound 1476]	12.2	36			
COc1cccc(OC)c1-c1cc(N2CC(CN3CCCC3)C2)c2nonc2c1 [compound 1511]	21.3	27			
O=C(C1CN(c2cc(-c3cccc(C(O)C(F)(F)F)c3)cc3nonc23)C1)N1CCCC1 (centres unmarked) [compound 1498]	10.8	48			
CS(=O)(=O)N1C=C(c2cc(N3CC(CN4CCCC4)C3)c3nonc3c2)CCC1 [compound 1533]	5.6	35			
CC(=O)Nc1ccc(-c2cc(N3CC(CN4CCCC4)C3)c3nonc3c2)cc1 [compound 1482]	5.52	41			
COC(c1cc(N2CC(CN3CCCC3)C2)c2nonc2c1)C(F)(F)F (centres unmarked) [compound 1539]	7.8	55			53
CS(=O)(=O)N1CCC=C(c2cc(N3CC(CN4CCCC4)C3)c3nonc3c2)C1 [compound 1522]	10.1	44			
OC(c1ccccc1-c1cc(N2CC(CN3CCCC3)C2)c2nonc2c1)C(F)(F)F (centres unmarked) [compound 1474]	3.1	77			
c1coc(-c2cc(N3CC(CN4CCCC4)C3)c3nonc3c2)c1 [compound 1530]	10.5	79			
O=C(NC1CC1)c1cc(N2CC(CN3CCCC3)C2)c2nonc2c1 [compound 1541]	4	31			19
Cc1ccc(-c2cc(N3CC(CN4CCCC4)C3)c3nonc3c2)cc1Cl [compound 1490]	4.4	27			
CC(=O)c1ccc(-c2cc(N3CC(CN4CCCC4)C3)c3nonc3c2)cc1 [compound 1512]	12	77			
CCCc1ccc(-c2cc(N3CC(CN4CCCC4)C3)c3nonc3c2)cc1 [compound 1507]	2.46	83			
OC(c1ccc(-c2cc(N3CCC(N4CCCC4)CC3)c3nonc3c2)cc1)C(F)(F)F (centres unmarked) [compound 1468]	2.4	65			44

SMILES	IC50 [1] [µM]	inhibition at 10 µM (Aβ40; compound 10 μM) [%]	% inhib Thioflavin T Aβ 40 10 μM (Aβ40; compound 10 μM) [%]	% inhib Thioflavin T Aβ 40 (5 μm) (Aβ40; [2]) [%]	inhibition at 5 µM (Aβ40; [2]) [%]
OC(c1ccccc1-c1cc(N2CCC(N3CCCC3)CC2)c2nonc2c1)C(F)(F)F (centres unmarked) [compound 1467]	5.1	43			28
FC(F)(F)Oc1ccccc1-c1cc(N2CC(CN3CCCC3)C2)c2nonc2c1 [compound 1495]	5.91	64			
CN1CC=C(c2cc(N3CC(CN4CCCC4)C3)c3nonc3c2)CC1 [compound 1517]	6.8	33			
FC(F)(F)c1ccccc1-c1cc(N2CC(CN3CCCC3)C2)c2nonc2c1 [compound 1514]	11.2	57			
CN(C)C(=O)c1cccc(-c2cc(N3CC(CN4CCCC4)C3)c3nonc3c2)c1 [compound 1531]	2.7	45			
CC(=O)N1CCC=C(c2cc(N3CC(CN4CCCC4)C3)c3nonc3c2)C1 [compound 1521]	30.1	20			
Brc1cc(N2CC(CN3CCCC3)C2)c2nonc2c1 [compound 1472, 6-bromo-4-(3-(pyrrolidin-1-ylmethyl)azetidin-1-yl)benzo[c][1,2,5]oxadiazole]	3.6	65			
COCCN1CCC=C(c2cc(N3CC(CN4CCCC4)C3)c3nonc3c2)C1 [compound 1523]	1.3	55			
CN(C)C(=O)c1ccc(-c2cc(N3CC(CN4CCCC4)C3)c3nonc3c2)cc1 [compound 1516]	> 20	47			
CN1CCC=C(c2cc(N3CC(CN4CCCC4)C3)c3nonc3c2)C1 [compound 1524]	14.9	61			
c1cc(-c2cc(N3CC(CN4CCCC4)C3)c3nonc3c2)cs1 [compound 1509]	> 20	71			
CC(=O)N1CC=C(c2cc(N3CC(CN4CCCC4)C3)c3nonc3c2)CC1 [compound 1503]	> 20	33			
COCCN1CC=C(c2cc(N3CC(CN4CCCC4)C3)c3nonc3c2)CC1 [compound 1519]	8.2	53			
Brc1cc(N2CC(CN3CCOCC3)C2)c2nonc2c1 [compound 1470]	> 20	62			
CN(CCCN1CCCC1)c1cc(-c2cccc(C(O)C(F)(F)F)c2)cc2nonc12 (centres unmarked) [compound 1469]	2.4	75			70
N#Cc1cccc(-c2cc(N3CC(CN4CCCC4)C3)c3nonc3c2)c1 [compound 1493]	12.9	57			
c1n[nH]cc1-c1cc(N2CC(CN3CCCC3)C2)c2nonc2c1 [compound 1526]	5.8	60			
CS(=O)(=O)c1cccc(-c2cc(N3CC(CN4CCCC4)C3)c3nonc3c2)c1 [compound 1479]	7.94	24			
O=C(c1cc(N2CC(CN3CCCC3)C2)c2nonc2c1)N1CCOCC1 [compound 1538]	2.9	54			47
c1ccc2oc(-c3cc(N4CC(CN5CCCC5)C4)c4nonc4c3)cc2c1 [compound 1485]	2.63	26			
c1cc(-c2cc(N3CC(CN4CCCC4)C3)c3nonc3c2)co1 [compound 1510]	> 20	65			
Cc1cc(C)cc(-c2cc(N3CC(CN4CCCC4)C3)c3nonc3c2)c1 [compound 1506]	4.44	44			
CC(C)c1ccc(-c2cc(N3CC(CN4CCCC4)C3)c3nonc3c2)cc1 [compound 1489]	1.6	34			
Cn1cc(-c2cc(N3CC(CN4CCCC4)C3)c3nonc3c2)cn1 [compound 1527]	7.5	49			
c1ccc(-c2cc(N3CC(CN4CCCC4)C3)c3nonc3c2)cc1 [compound 1486]	19.7	32			
